Consider ten molecules from ChEMBL document CHEMBL1201862, “PubChem BioAssay data set” (2004).

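Five concentrations, 48 hours, 96-well plates. At the GI50, growth is halved.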 The source made the active and inactive calls. Cut-off read from the data, not from the text of the source: active = GI50 up to about 1.1 µM and inactive = higher.

Among the test systems are CCRF-CEM; HT-29; K562; CAKI-1; OVCAR-5; NCI-H226; SN12C; MOLT-4; A549; UACC-62; U-251; UO-31; HCC 2998; HCT-116; BT-549; SW-620; NCI-H522; SF-268; HCT-15; OVCAR-8.
Holding throughout (assay): inhibition of tumour cell growth, NCI panel, 48 h

On to `COc1cccc(C2c3cc4c(cc3OC(N3CCOCC3)C2C)OCO4)c1O` (stereo not given), for which the GI50 in the test on CCRF-CEM was 3.28 µM (inactive); in the test with HT-29 it was 4.02 µM (inactive); in the test with K562, 3.06 µM (inactive); in the test with CAKI-1, 2.66 µM (inactive); with OVCAR-5, 7.46 µM (inactive); in the test with NCI-H226, 4.46 µM (inactive). Besides, the GI50 was 6.59 µM (inactive) in the test with SN12C; 4.02 µM (inactive) in the test with MOLT-4; 4.82 µM (inactive) in the test with A549; 4.53 µM (inactive) in the test with UACC-62; 0.38 µM (active) in the test with U-251; 8.3 µM (inactive) in the test with UO-31. In addition, the GI50 in the test with HCC 2998 is 7.23 µM (inactive); in the test on HCT-116 it was 3.84 µM (inactive); with BT-549, 13.9 µM (inactive); in the test on SW-620, 3.87 µM (inactive); with NCI-H522 it was 2.9 µM (inactive); in the test with SF-268, 6.89 µM (inactive). For the same molecule, the GI50 in the test with HCT-15 was 3.32 µM; with OVCAR-8, 6.59 µM (inactive).

`O=C(c1ccco1)N(C(=O)N1CCN(c2ccccc2)CC1)S(=O)(=O)c1ccccc1`: the GI50 is 27 µM (inactive) with CCRF-CEM; 35.8 µM (inactive) with HT-29; 33 µM (inactive) with K562; 22.8 µM (inactive) with CAKI-1; 41.6 µM (inactive) with OVCAR-5; 26.4 µM (inactive) in the test on NCI-H226. Besides, the GI50 with SN12C is 23.9 µM (inactive); with MOLT-4 it was 21.9 µM (inactive); with A549, 34.4 µM (inactive); with UACC-62, 27.4 µM (inactive); with U-251, 27.4 µM (inactive); in the test on UO-31, 21.9 µM (inactive). Also, the GI50 in the test on HCC 2998 is 48.4 µM (inactive); with HCT-116, 21.3 µM (inactive); in the test with BT-549 it was 32.7 µM (inactive); with SW-620 it was 38.5 µM (inactive); in the test on NCI-H522, 18.3 µM (inactive); in the test with SF-268, 37.7 µM (inactive). Besides, the values for the GI50 in the test on HCT-15 and with OVCAR-8 were 33.4 µM and 32.6 µM (inactive), respectively.

Take `COC(=O)CCC(=O)NC1=C(Nc2ccccc2)C(=O)c2ccccc2C1=O`: the GI50 with CCRF-CEM is 9.95 µM (inactive); in the test on HT-29, 16.9 µM (inactive); with K562 it was 14.8 µM (inactive); in the test with CAKI-1, 14.4 µM (inactive); in the test on OVCAR-5, 9.27 µM (inactive); in the test on NCI-H226, 14.6 µM (inactive). The GI50 was 13.6 µM (inactive) in the test on SN12C; 12.1 µM (inactive) in the test with MOLT-4; 18.8 µM (inactive) in the test on A549; 3.67 µM (inactive) in the test with UACC-62; 11.7 µM (inactive) in the test with U-251; 17.9 µM (inactive) in the test with UO-31. The GI50 was 22.9 µM (inactive) in the test with HCC 2998; 9.71 µM (inactive) in the test on HCT-116; 10.6 µM (inactive) in the test on BT-549; 11.4 µM (inactive) in the test with SW-620; 14.8 µM (inactive) in the test with NCI-H522; 13.2 µM (inactive) in the test on SF-268. The values for the GI50 in the test on HCT-15 and in the test on OVCAR-8 were 11.2 µM and 11.4 µM (inactive), respectively.

With `O=c1c2nc(-c3ccccc3)oc2n(-c2ccccc2)c(=O)n1-c1ccccc1`, the GI50 with CCRF-CEM is > 46.5 µM (inactive); in the test on HT-29, > 46.5 µM (inactive); in the test with K562, > 46.5 µM (inactive); in the test on CAKI-1, 8.18 µM (inactive); in the test with OVCAR-5, > 46.5 µM (inactive); with NCI-H226, 31.8 µM (inactive). For the same molecule, the GI50 was 36.2 µM (inactive) in the test with SN12C; > 46.5 µM (inactive) with MOLT-4; 37.6 µM (inactive) in the test with A549; 31.1 µM (inactive) in the test with UACC-62; 19.3 µM (inactive) in the test on U-251; 22 µM (inactive) in the test on UO-31. Moreover, the GI50 in the test with HCC 2998 is > 46.5 µM (inactive); with HCT-116 it was 31.7 µM (inactive); in the test on BT-549, 28.4 µM (inactive); in the test with SW-620, > 46.5 µM (inactive); with NCI-H522 it was 21.4 µM (inactive); with SF-268 it was 20.7 µM (inactive). In addition, the figures for the GI50 with HCT-15 and in the test with OVCAR-8 were above 46.5 µM and 23.3 µM (inactive), respectively.

For `[Se]=P(c1ccccc1)(c1ccccc1)c1ccc(C(c2ccccc2)=P(c2ccccc2)(c2ccccc2)c2ccccc2)cc1`, the GI50 was 0.495 µM (active) in the test on CCRF-CEM; 0.406 µM (active) in the test on HT-29; 0.182 µM (active) with K562; 2.3 µM (inactive) in the test on CAKI-1; 3.05 µM (inactive) in the test with OVCAR-5; 1.31 µM (inactive) with NCI-H226. Further, the GI50 with SN12C was 1.23 µM (inactive); with MOLT-4 it was 1.32 µM (inactive); with A549 it was 1.44 µM (inactive); in the test with UACC-62 it was 1.02 µM (active); in the test with U-251 it was 0.385 µM (active); in the test with UO-31 it was 3.27 µM (inactive). The GI50 in the test with HCC 2998 is 0.979 µM (active); in the test on HCT-116 it was 0.6 µM (active); in the test with BT-549, 0.929 µM (active); in the test on SW-620 it was 1.19 µM (inactive); with NCI-H522 it was 0.33 µM (active); in the test with SF-268 it was 0.514 µM (active). In addition, the results for the GI50 in the test with HCT-15 and with OVCAR-8 were 4.55 µM and 0.764 µM (active), respectively.

As for `Cn1c(=O)n(CC(Br)CBr)c(=O)n(CC(Br)CBr)c1=O` (stereo not given), the GI50 in the test on CCRF-CEM is 22.7 µM (inactive); with HT-29, 21.7 µM (inactive); in the test on K562 it was 32.5 µM (inactive); in the test with CAKI-1 it was 85.3 µM (inactive); in the test on OVCAR-5 it was 43.9 µM (inactive); in the test with NCI-H226, 20.2 µM (inactive). The GI50 in the test on SN12C is 26 µM (inactive); with MOLT-4, 26.3 µM (inactive); in the test with A549 it was 40.3 µM (inactive); with UACC-62 it was 23.3 µM (inactive); with U-251, 43.3 µM (inactive); with UO-31, 25.5 µM (inactive). The GI50 in the test on HCC 2998 is 28.4 µM (inactive); in the test with HCT-116, 25.9 µM (inactive); with BT-549, 67.9 µM (inactive); with SW-620 it was 30.9 µM (inactive); in the test on NCI-H522, 28 µM (inactive); with SF-268, 74.6 µM (inactive). In addition, the values for the GI50 in the test with HCT-15 and with OVCAR-8 were 36.2 µM and 58.7 µM (inactive), respectively.

With `C=C1C(=O)C[C@H]2C(=C)C(=O)O[C@@H]2C2C1CC[C@@]2(C)O` (stereo not given in full), the GI50 is > 100 µM (inactive) in the test with CCRF-CEM; 20 µM (inactive) in the test on HT-29; 16.3 µM (inactive) with K562; 16.7 µM (inactive) with CAKI-1; 32.8 µM (inactive) in the test with OVCAR-5; 22.2 µM (inactive) with NCI-H226. Moreover, the GI50 in the test on SN12C is 42.6 µM (inactive); in the test on MOLT-4, 23.2 µM (inactive); with A549, 44.4 µM (inactive); in the test with UACC-62 it was 14.9 µM (inactive); in the test on U-251, 45.6 µM (inactive); with UO-31, 23.2 µM (inactive). In addition, the GI50 is 19 µM (inactive) with HCC 2998; 31.8 µM (inactive) in the test on HCT-116; 19.8 µM (inactive) in the test with BT-549; 23 µM (inactive) with SW-620; 12.7 µM (inactive) with NCI-H522; > 100 µM (inactive) with SF-268. In addition, the GI50 was 17.7 µM with HCT-15 and 31.7 µM (inactive) with OVCAR-8.

For `O=S1(=O)N=C(NCc2c[nH]c3ccccc23)N(c2ccccc2)c2ccncc21`, the GI50 was > 100 µM (inactive) in the test on CCRF-CEM; > 100 µM (inactive) in the test on HT-29; > 100 µM (inactive) with K562; > 100 µM (inactive) with CAKI-1; > 100 µM (inactive) in the test with OVCAR-5; 60.3 µM (inactive) in the test with NCI-H226. In addition, the GI50 was 81.7 µM (inactive) in the test with SN12C; > 100 µM (inactive) in the test on MOLT-4; > 100 µM (inactive) in the test on A549; > 100 µM (inactive) with UACC-62; 49.4 µM (inactive) in the test with U-251; 5.25 µM (inactive) in the test with UO-31. Moreover, the GI50 was > 100 µM (inactive) in the test with HCC 2998; > 100 µM (inactive) in the test on HCT-116; 55.1 µM (inactive) in the test with BT-549; > 100 µM (inactive) in the test on SW-620; 25.1 µM (inactive) in the test on NCI-H522; 27.5 µM (inactive) with SF-268. Further, the GI50 is above 100 µM in the test with HCT-15 and 27.4 µM (inactive) in the test on OVCAR-8.

Take `O=c1c(C(c2ccc3ccccc3c2)c2c(O)oc3ccccc3c2=O)c(O)oc2ccccc12`: the GI50 was 46.5 µM (inactive) in the test on CCRF-CEM; 18.5 µM (inactive) in the test on HT-29; 50.6 µM (inactive) in the test with K562; 22.9 µM (inactive) with CAKI-1; 28.1 µM (inactive) with OVCAR-5; 26.5 µM (inactive) in the test on NCI-H226. The GI50 in the test with SN12C was 20.6 µM (inactive); in the test with MOLT-4 it was 22.4 µM (inactive); with A549, 33 µM (inactive); in the test on UACC-62, 38.1 µM (inactive); in the test with U-251, 16.6 µM (inactive); in the test on UO-31, 17 µM (inactive). Besides, the GI50 in the test on HCC 2998 was 17.9 µM (inactive); with HCT-116, 35 µM (inactive); in the test with BT-549, 24.8 µM (inactive); in the test with SW-620, 31.9 µM (inactive); with NCI-H522 it was 17.5 µM (inactive); in the test with SF-268, 21.4 µM (inactive). The GI50 in the test on HCT-15 was 20 µM; in the test with OVCAR-8, 16.1 µM (inactive).

Turning to `COc1ccc(C(=O)c2sc(Nc3ccc(Cl)cc3)nc2N)cc1`, the GI50 in the test on CCRF-CEM was 2.52 µM (inactive); in the test with HT-29, 4.43 µM (inactive); in the test on K562 it was 3.82 µM (inactive); in the test on CAKI-1 it was 16.4 µM (inactive); in the test with OVCAR-5, > 49.9 µM (inactive); in the test with NCI-H226 it was 29.6 µM (inactive). For the same molecule, the GI50 is 21.6 µM (inactive) in the test with SN12C; 4.04 µM (inactive) with MOLT-4; 6.15 µM (inactive) with A549; 19.3 µM (inactive) in the test on UACC-62; 10.7 µM (inactive) in the test on U-251; 38.2 µM (inactive) in the test on UO-31. For the same molecule, the GI50 in the test with HCC 2998 was 4.91 µM (inactive); in the test on HCT-116 it was 7.66 µM (inactive); in the test on BT-549, > 38.5 µM (inactive); in the test on SW-620, 5.71 µM (inactive); in the test on NCI-H522, 3.89 µM (inactive); in the test with SF-268, 8.15 µM (inactive). The GI50 is 3.27 µM in the test on HCT-15 and 25.9 µM (inactive) in the test with OVCAR-8.
